Test results as given in US20240226041A1, “METHODS AND COMPOSITIONS FOR TREATMENT OF NEUROPATHIC PAIN USING STAT3 INHIBITORS” (priority 2021, published 2024).
Entries after “also recorded” stand apart in the source; their conditions may differ.

Assays:
[1] = tested on: male C57BL/6 mice; assay: Cisplatin model of chemotherapy-induced peripheral neuropathy (CIPN), von Frey mechanical allodynia; assay type: in vivo, mouse; conditions: 50 mg/kg i.p. every other day
Method: (§1) Data were analyzed by two-way ANOVA repeated measures. Time: P<0.001; Group: P<0.001; Interaction P<0.001. **P<0.01 Tukey multiple comparison test. Data are from a representative experiment out of two with similar results.
Male C57/B16 mice (n=4 per group) were treated with cisplatin (two rounds of 5 daily doses of 2.3 mg/kg i.p. followed by 5 days of rest). […] Data were analyzed by two-way ANOVA repeated measures. Time: P<0.001; Group: P<0.001; Interaction P<0.01. **P<0.01 Tukey multiple comparison test.
(§2) Peripheral neuropathy has been observed with several small-molecule STAT3 inhibitors in clinical-stage development (Bendell et al., 2014; Genini et al., 2017; Ogura et al., 2015). […] This model was selected because it was shown previously that it is mediated by mitochondrial damage in the peripheral nervous system (Krukowski et al., 2017; Maj, Ma, Krukowski, Kavelaars & Heijnen, 2017). […] (FIG. 12).
(§3) Pain measurements and chemotherapy-induced peripheral neuropathy (CIPN).

[2] = tested on: DRG neurons; assay: Example 7: DRG neuron Ca2+ flux and electrical activity, CCI mice; assay type: cell-based, mouse; conditions: CCI mice with and without TTI-101 treatment
Method: Spontaneous electrical activity is assessed ex vivo using multi-electrode array recording for 3 days in vitro.

[3] = tested on: male C57BL/6 mice; assay: Mechanical sensitivity (von Frey) in mice given TTI-101 alone; assay type: in vivo, mouse; conditions: 50 mg/kg i.p. every other day, 7 doses
Method: as §1, §2, §3

[4] = tested on: bone marrow-derived macrophages (BMDM); assay: Example 5: bone marrow-derived macrophage inflammation and ROS production after STAT3 activation; assay type: cell-based; conditions: pre-incubation 0, 1, 3, 10, and 30 μM for one hour before Ang II or cytokines
Method: STAT3 is activated within BMDM in vitro by addition of Ang II (0.1-1 μM for 24 h), or using a cocktail of inflammatory mediators. […] The % of F4/80+ macrophages containing elevated levels of the fluorescent ROS-sensitive dye DCFDA is analyzed. The levels of pY-STAT3 in BMDM are determined. The BMDM cytokine expression pattern at the end of the culture period is assessed by intracellular fluorescence for cytosolic IL-10, IL-4, TNF-a and IL-1b.

[5] = tested on: C57BL/6 mice; assay: Example 3: mouse SNI model, pain behavior, barrier function, leukocyte infiltration, inflammatory mediators; assay type: in vivo
Method: SNI surgery is carried out in C57BL/6 mice as previously described. Analgesia is limited to perioperative administration of buprenorphine SR (0.05 mg/kg SQ). […] Animals then are examined for behavioral pain sensitivity. Plantar mechanical sensitivity is assessed using hind paw stimulation with von Frey filaments. Frequency of hindlimb withdrawal in response to application of filaments of increasing force is used as a readout of mechanical sensitivity. Plantar cold sensitivity is tested using the plantar cold assay, in which hindpaw withdrawal in response to a cooling source is used as a readout of cold sensitivity. Testing is carried out after habituation at baseline (prior to surgery), then once weekly for 8 weeks following surgery. Daily testing of von Frey and cold sensitivity is carried out during the TTI-101 treatment window. Additional behavioral testing occurs weekly to more extensively validate analgesic efficacy and functional recovery. The mechanical conflict-avoidance (MCA) test uses a chamber of blunt probes to measure aversion to hindpaw mechanical stimuli and serves as an additional assessment of mechanical sensitivity. Plantar cold sensitivity is measured using the thermal gradient ring assay, which uses a temperature gradient to measure temperature preference/aversion. Finally, paw placement and other gait parameters are assessed using digital gait analysis (Catwalk XT) and a burrowing activity assay (spontaneous clearing of bedding material from a tube). […] All experiments are performed by observers blinded to the genotype and drug formulation administered. This additional behavioral testing is done from baseline (8 weeks)—prior to nerve injury—then weekly thereafter until 16 weeks of age. Mice are euthanized humanely by cardiac puncture and necropsy performed to remove the contralateral and ipsilateral sciatic nerves (SN) and dorsal root ganglia (DRG). […] Anticoagulated blood at both time points is used to measure levels of pro- and anti-inflammatory cytokines, including IL-4, IL-6, IL-10, IL-13, TGF-β and IFN-γ by Luminex. One portion of each SN and DRG is snap-frozen and another portion placed in formalin, then paraffin imbedded (FFPE). Cryotome sections of snap-frozen tissues are used to generate protein lysates for measurement of pY-STAT3, IL-1B and IL-6 by Luminex and Western blotting. […] Snap-frozen tissues are processed to isolate RNA for RNA sequencing (RNA-seq) analysis. Microtome sections of FFPE blocks are H&E stained and undergo immunohistochemistry staining and scoring for pY-STAT3, CD68 (macrophages), PGP9.5 (sensory nerves) and GAP43 (regenerating nerves). Detection of oxidative stress in sciatic nerve and DRG via IHC for nitrotyrosine, 4-hydroxynonenal and MnSOD is carried out. Vascular endothelium permeability in nerve is determined by quantifying the extravasation of the fluorescent dye sodium fluorescein. Cross-sections of the nerve are quantified using the EVOS fluorescence microscope, and mean fluorescence intensity and the percent area positive are determined using NIH ImageJ software. In a subset of mice, characterization of SN and DRG macrophage phenotype are analyzed using flow cytometry with conjugated antibodies against CD86, F4/80, CD163 and CD206.

[6] = tested on: dogs; conditions: dog, in vivo; cited from earlier work
[7] = tested on: mice; assay: Example 6: mouse chronic constriction injury (CCI) model; assay type: in vivo
Method: CCI surgery is carried out in mice. Analgesia is limited to perioperative administration of buprenorphine SR (0.05 mg/kg SQ). […] Animals then are examined for behavioral pain sensitivity. All experiments are performed by observers blinded to the drug formulation administered. This is done from baseline (8 weeks)—prior to nerve injury—then weekly thereafter until 16 weeks of age. […] Anticoagulated blood is used to measure levels of pro- and anti-inflammatory cytokines. One portion of each SN and DRG is snap-frozen and another portion placed in formalin, then paraffin imbedded (FFPE). Cryotome sections of the snap-frozen tissue are used to generate protein lysates for measurement of pY-STAT3, IL-1B, and IL-6 by Luminex, and RNA for RNA-seq analysis. […] Microtome sections of FFPE blocks are H&E stained and undergo immunohistochemistry staining and scoring for pY-STAT3, CD68 (macrophages), PGP9.5 (sensory nerves) and GAP43 (regenerating nerves). Detection of oxidative stress in sciatic nerve and DRG via IHC for nitrotyrosine or 4-hydroxynonenal adducts and MnSOD is carried out. In a subset of mice, characterization of SN and DRG macrophage phenotype is analyzed using flow cytometry with conjugated antibodies against CD86, F4/80, CD163 and CD206.

[8] = 100 mg/kg oral gavage daily for 5 days

SMILES: COc1ccc(S(=O)(=O)Nc2cc(-c3c(O)ccc4ccccc34)c(O)c3ccccc23)cc1 [TTI-101]
- dose after which maximal inhibition of allodynia was obtained [1]: after the 4th dose
- time after last dose at which mechanical allodynia returned to levels of cisplatin alone ([1]; 7 doses): 4 days
- cisplatin-induced mechanical allodynia ([1]; 7 doses, after two cycles of cisplatin 2.3 mg/kg): markedly reduced; also recorded: reverses mechanical allodynia caused by cisplatin
- spontaneous activity and baseline cytosolic Ca2+ concentration in DRGs ipsilateral to injury [2]: reverses the elevated spontaneous activity and baseline cytosolic Ca^2+ concentration
- mechanical sensitivity / mechanical allodynia caused by compound alone [3]: had no effect on mechanical sensitivity; also recorded: does not cause mechanical allodynia
- oxidative stress/pro-inflammatory phenotype of BMDM after STAT3 activation [4]: reverses this oxidative stress/pro-inflammatory phenotype
- antalgic gait patterns/burrowing aversion [5, 8]: net reduction
- macrophage infiltration of SN and DRG [5, 8]: net reduction
- mechanical and cold hypersensitivity [5, 8]: net reduction
- plasma and tissue levels / pY-STAT3 in macrophages in SN and DRG [5, 8]: achieves levels in the plasma and tissue adequate to reduce levels of pY-STAT3
- RNA-seq gene signatures ([5]; SN and DRG): shifts RNA-seq gene signatures toward a net promotion of M2-like macrophage polarization, improved tight junction/barrier formation, reduced ROS production, and circulating pro-inflammatory markers
- serious toxicity including lactic acidosis [6]: did not demonstrate any serious toxicity including lactic acidosis
- antalgic gait patterns/burrowing aversion [7, 8]: net reduction
- macrophage infiltration of the sciatic nerve [7, 8]: net reduction
- mechanical and thermal hypersensitivity [7, 8]: net reduction
- plasma and tissue levels / pY-STAT3 in macrophages in SN and DRG [7, 8]: achieves levels in the plasma and tissue adequate to reduce levels of pY-STAT3
- pain hyper-sensitivity at 8 weeks post-CCI ([7]; 8 weeks post-CCI): sustained reversal
